The record followed here is PubChem BioAssay AID2151 (NMMLSC, 2009).

Activity calls are given as the source filed them. No rule for the calls is given here. A value given as a limit tells only on which side of the number the result lay.

The target in this experiment is MEK5 PB1 domain binding to MEKK2 (MAP3K2) mutant PB1, human. Put plainly: blockers of MEK5 association with mutant MEKK2 – biochemical, bead multiplex flow cytometry, SAR follow-up (AID 2151). To be noted: Bead-based multiplex flow cytometry.
A word on the EC50: it is the concentration giving half of the maximal effect. Regarding `c1csc(Cc2nn3c(-c4ccncc4)nnc3s2)c1`, the EC50 was > 30 µM (inactive).
Then `CCOc1cccc(-c2nn3c(-c4ccco4)nnc3s2)c1`, with > 30 µM (inactive).
Take `COc1ccc(-c2nn3c(-c4ccccn4)nnc3s2)cc1OC`: the EC50 was > 30 µM (inactive).
For `CCOc1cccc(-c2nn3c(-c4cccs4)nnc3s2)c1`, the EC50 is > 30 µM (inactive).
As to `c1ccc(-c2nnc3sc(C4CCCCC4)nn23)nc1`, the EC50 was > 30 µM (inactive).
`c1c[nH]c(-c2nn3c(-c4ccco4)nnc3s2)c1`: the EC50 is > 30 µM (inactive).
Regarding `COc1cc([N+](=O)[O-])ccc1-c1nn2c(-c3ccco3)nnc2s1`, the EC50 is > 30 µM (inactive).
Turning to `COc1cccc(-c2nn3c(-c4ccccn4)nnc3s2)c1`, the EC50 was > 30 µM (inactive).
Regarding `c1ccc(-c2nnc3sc(-c4ccc[nH]4)nn23)nc1`, the EC50 was > 30 µM (inactive).
For the compound `c1ccc(-c2nnc3sc(C4CCCCCC4)nn23)nc1`, the EC50 was > 30 µM (inactive).
For `c1coc(-c2nnc3sc(C4CCCCC4)nn23)c1`, the EC50 was > 30 µM (inactive).
Consider `c1coc(-c2nnc3sc(C4CCCCCC4)nn23)c1`, for which the EC50 was > 30 µM (inactive).
Then `COc1cc([N+](=O)[O-])ccc1-c1nn2c(-c3ccccn3)nnc2s1`, with > 30 µM (inactive).
